The source of these data is US20250195521A1 (Revolution Medicines, Inc., priority 2020, published 2025).

Broadly, the EC50 is the concentration giving half of the maximal effect. Usually IC50 stands for the point on the concentration scale where inhibition reaches its midpoint.

Where two headings read alike, the source gives them in different places. A value given as a limit tells only on which side of the number the result lay.

Holding throughout (format): cell-based, human
In assay [1] the test system is AsPC-1 (K-Ras G12D). The experiment in a line: Potency assay: pERK. The settings on record: Homo sapiens. A digest of the protocol:
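Cells plated overnight, then exposed 4 h at 37 °C to 10-point 3-fold dilutions of compound, in duplicate. pERK read by AlphaLISA SureFire Ultra p-ERK1/2 lysate assay or by In-Cell Western (pERK antibody, DRAQ5 DNA normalisation). IC50 from 4-parameter sigmoidal fit of signal vs log concentration.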

The test system of another assay is NCI-H358 (K-Ras G12C). The experiment in a line: CellTiter-Glo cell viability assay, H358. The settings on record: Homo sapiens, NCI-H358, 120 h. How it is done:
Note—The following protocol describes a procedure for monitoring cell viability of K-Ras mutant cancer cell lines in response to a compound of the invention. Other RAS isoforms may be employed, though the number of cells to be seeded will vary based on cell line used.
Test compounds (132.5 nL) were directly dispensed into the assay plates containing cells. […] On day 5, assay plates and their contents were equilibrated to room temperature for approximately 30 minutes. […] Luminescence was measured using the PerkinElmer Enspire. Data were normalized by the following: (Sample signal/Avg. DMSO)*100. The data were fit using a four-parameter logistic fit.
(In general: Cellular ATP, detected with luciferase, serves as a proxy for viable cell number.)

Assay [2] has as its system AsPC-1 (K-Ras G12D). The experiment in a line: CellTiter-Glo cell viability assay, AsPC-1. The settings on record: Homo sapiens, ASPC1, 120 h, read-out: AsPC-1 Cell Viability IC50. A digest of the protocol:
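Steps: compound dispensed into wells holding cells; incubation to day 5; ~30 min room-temperature equilibration; luminescence read; sample signal divided by mean DMSO signal, times 100; four-parameter logistic curve fit.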

The mark [3] stands for this setting: read-out: H358 Cell Viability IC50, K-Ras G12C, 5-day treatment.

As to `CCn1c(-c2cccnc2[C@H](C)OC)c2c3cc(ccc31)-c1cc(O)cc(c1)C[C@H](NC(=O)[C@H](C(C)C)N(C)C(=O)CN(C)C(=O)[C@@H]1CN1CCOC)C(=O)N1CCC[C@H](N1)C(=O)OCC(C)(C)C2` (stereo partly drawn) [Example 160], in the assay on AsPC-1 (K-Ras G12D) [1] (ASPC1, read-out: pERK EC50), the EC50 is below 5000 nM. For the same compound, the IC50 in the assay with NCI-H358 (K-Ras G12C) (setting [3]) was below 10 nM; in the assay on AsPC-1 (K-Ras G12D) [2], 100 to 1000 nM.
`CCn1c(-c2cccnc2[C@H](C)OC)c2c3cc(ccc31)-c1cc(O)cc(c1)C[C@H](NC(=O)[C@H](C(C)C)N(C)C(=O)CN(C)C(=O)[C@H]1CN1CCCOC)C(=O)N1CCC[C@H](N1)C(=O)OCC(C)(C)C2` (stereo partly drawn) [Example 201]: the EC50 in the assay on AsPC-1 (K-Ras G12D) [1] (ASPC1, read-out: pERK EC50) was below 5000 nM. Besides, the IC50 in the assay on NCI-H358 (K-Ras G12C) (setting [3]) is below 10 nM; in the assay on AsPC-1 (K-Ras G12D) [2] it was 100 to 1000 nM.
Take `CCn1c(-c2cc(N3CCN(C)CC3)cnc2[C@H](C)OC)c2c3cc(ccc31)-c1cc(O)cc(c1)C[C@H](NC(=O)[C@H](C1CCCC1)N(C)C(=O)CN(C)C(=O)[C@H]1CN1)C(=O)N1CCC[C@H](N1)C(=O)OCC(C)(C)C2` [Example 209, (2R)—N-(2-(((1S)-1-cyclopentyl-2-(((6^3S,4S)-1^1-ethyl-25-hydroxy-12-(2-((S)-1-methoxyethyl)-5-(4-methylpiperazin-1-yl)pyridin-3-yl)-10,10-dimethyl-5,7-dioxo-6^1,6^2,6^3,6^4,6^5,6^6-hexahydro-1^1H-8-oxa-1 (5,3)-indola-6 (1,3)-pyridazina-2 (1,3)-benzenacycloundecaphane-4-yl)amino)-2-oxoethyl) (methyl)amino)-2-oxoethyl)-N-methylaziridine-2-carboxamide]: the EC50 with AsPC-1 (K-Ras G12D) [1] (ASPC1, read-out: pERK EC50) was below 5000 nM. For the same compound, the IC50 in the assay on NCI-H358 (K-Ras G12C) (setting [3]) and in the assay on AsPC-1 (K-Ras G12D) [2] was below 10 nM throughout.
On to `CCn1c(-c2cccnc2[C@H](C)OC)c2c3cc(ccc31)-c1cc(O)cc(c1)C[C@H](NC(=O)[C@H](C1CCCC1)N1CC[C@]3(CCN(C(=O)[C@@H]4N[C@@H]4C4CC4)C3)C1=O)C(=O)N1CCC[C@H](N1)C(=O)OCC(C)(C)C2` [Example 214, (2S)-2-cyclopentyl-2-((S)-7-((2R,3R)-3-cyclopropylaziridine-2-carbonyl)-1-oxo-2,7-diazaspiro[4.4]nonan-2-yl)-N-((6^3S,4S)-1^1-ethyl-25-hydroxy-1^2-(2-((S)-1-methoxyethyl)pyridin-3-yl)-10,10-dimethyl-5,7-dioxo-6^1,6^2,6^3,6^4,6^5,6^6-hexahydro-1^1H-8-oxa-1 (5,3)-indola-6 (1,3)-pyridazina-2 (1,3)-benzenacycloundecaphane-4-yl) acetamide], for which the EC50 with AsPC-1 (K-Ras G12D) [1] (ASPC1, AsPC-1 KRAS G12D, read-out: pERK EC50) was below 5000 nM. Moreover, the IC50 lay within 10 to 100 nM in the assay with NCI-H358 (K-Ras G12C) (K-Ras G12C, 5-day treatment, read-out: H358 Cell Viability IC50) and 10 to 100 nM in the assay on AsPC-1 (K-Ras G12D) [2] (K-Ras G12D, 5-day treatment).
In the case of `CCn1c(-c2cccnc2[C@H](C)OC)c2c3cc(ccc31)-c1cc(O)cc(c1)C[C@H](NC(=O)[C@H](C(C)C)N(C)C(=O)CN(C)C(=O)[C@@]1(C)CN1)C(=O)N1CCC[C@H](N1)C(=O)OCC(C)(C)C2` [Example 256], the EC50 in the assay on AsPC-1 (K-Ras G12D) [1] (ASPC1, read-out: pERK EC50) was below 5000 nM. Moreover, the IC50 in the assay on NCI-H358 (K-Ras G12C) (setting [3]) lay in the range of 10 to 100 nM; in the assay on AsPC-1 (K-Ras G12D) [2] it was 100 to 1000 nM.
For the compound `CCn1c(-c2cccnc2[C@H](C)OC)c2c3cc(ccc31)-c1cc(O)cc(c1)C[C@H](NC(=O)[C@H](C(C)C)N(C)C(=O)CN(C)C(=O)[C@]1(C)CN1)C(=O)N1CCC[C@H](N1)C(=O)OCC(C)(C)C2` [Example 257], in the assay on AsPC-1 (K-Ras G12D) [1] (ASPC1, read-out: pERK EC50), the EC50 was below 5000 nM. The IC50 lay in the range of 10 to 100 nM in the assay on NCI-H358 (K-Ras G12C) (setting [3]) and 100 to 1000 nM in the assay with AsPC-1 (K-Ras G12D) [2].
Regarding `CCn1c(-c2cccnc2[C@H](C)OC)c2c3cc(ccc31)-c1cc(O)cc(c1)C[C@H](NC(=O)[C@H](C(C)C)N(C)C(=O)CN(C)C(=O)[C@@H]1N[C@@H]1C(F)(F)F)C(=O)N1CCC[C@H](N1)C(=O)OCC(C)(C)C2` [Example 258], the EC50 in the assay with AsPC-1 (K-Ras G12D) [1] (ASPC1, read-out: pERK EC50) was below 5000 nM. Moreover, the results for the IC50 in the assay with NCI-H358 (K-Ras G12C) (setting [3]) and in the assay on AsPC-1 (K-Ras G12D) [2] were 10 to 100 nM and 100 to 1000 nM, respectively.
`CCn1c(-c2cccnc2[C@H](C)OC)c2c3cc(ccc31)-c1cc(O)cc(c1)C[C@H](NC(=O)[C@H](C(C)C)N(C)C(=O)CN(C)C(=O)[C@H]1N[C@H]1C(F)(F)F)C(=O)N1CCC[C@H](N1)C(=O)OCC(C)(C)C2` [Example 259]: the EC50 with AsPC-1 (K-Ras G12D) [1] (ASPC1, read-out: pERK EC50) was below 5000 nM. The IC50 was in the range of 10 to 100 nM with NCI-H358 (K-Ras G12C) (setting [3]) and 100 to 1000 nM with AsPC-1 (K-Ras G12D) [2].
As to `CCn1c(-c2cccnc2[C@H](C)OC)c2c3cc(ccc31)-c1cc(O)cc(c1)C[C@H](NC(=O)[C@H](C(C)C)N(C)C(=O)CN(C)C(=O)[C@H]1N[C@@H]1C(F)(F)F)C(=O)N1CCC[C@H](N1)C(=O)OCC(C)(C)C2` [Example 261], the 50% effective concentration (EC50) with AsPC-1 (K-Ras G12D) [1] (ASPC1, read-out: pERK EC50) was below 5000 nM. The results for the IC50 in the assay on NCI-H358 (K-Ras G12C) (setting [3]) and with AsPC-1 (K-Ras G12D) [2] were below 10 nM and 100 to 1000 nM, respectively.
As for `CC[C@H]1N[C@H]1C(=O)N(C)CC(=O)N(C)[C@H](C(=O)N[C@H]1Cc2cc(O)cc(c2)-c2ccc3c(c2)c(c(-c2cccnc2[C@H](C)OC)n3CC)CC(C)(C)COC(=O)[C@@H]2CCCN(N2)C1=O)C(C)C` [Example 262], in the assay on AsPC-1 (K-Ras G12D) [1] (ASPC1, read-out: pERK EC50), the EC50 is below 5000 nM. Besides, the IC50 fell in the range of 10 to 100 nM in the assay on NCI-H358 (K-Ras G12C) (setting [3]) and 100 to 1000 nM in the assay on AsPC-1 (K-Ras G12D) [2].
As for `CC[C@@H]1N[C@@H]1C(=O)N(C)CC(=O)N(C)[C@H](C(=O)N[C@H]1Cc2cc(O)cc(c2)-c2ccc3c(c2)c(c(-c2cccnc2[C@H](C)OC)n3CC)CC(C)(C)COC(=O)[C@@H]2CCCN(N2)C1=O)C(C)C` [Example 263], the EC50 in the assay on AsPC-1 (K-Ras G12D) [1] (ASPC1, read-out: pERK EC50) was below 5000 nM. The values for the IC50 in the assay with NCI-H358 (K-Ras G12C) (setting [3]) and in the assay with AsPC-1 (K-Ras G12D) [2] were 10 to 100 nM and 100 to 1000 nM, respectively.
Consider `CCn1c(-c2cccnc2[C@H](C)OC)c2c3cc(ccc31)-c1cc(O)cc(c1)C[C@H](NC(=O)[C@H](C(C)C)N(C)C(=O)CN(C)C(=O)[C@@H]1N[C@@H]1C(C)C)C(=O)N1CCC[C@H](N1)C(=O)OCC(C)(C)C2` [Example 264], for which, in the assay on AsPC-1 (K-Ras G12D) [1] (ASPC1, read-out: pERK EC50), the EC50 was below 5000 nM. Besides, the IC50 in the assay with NCI-H358 (K-Ras G12C) (setting [3]) is 10 to 100 nM; in the assay on AsPC-1 (K-Ras G12D) [2], 100 to 1000 nM.
As for `CCn1c(-c2cccnc2[C@H](C)OC)c2c3cc(ccc31)-c1cc(O)cc(c1)C[C@H](NC(=O)[C@H](C(C)C)N(C)C(=O)CN(C)C(=O)[C@H]1N[C@H]1C(C)C)C(=O)N1CCC[C@H](N1)C(=O)OCC(C)(C)C2` [Example 265], the EC50 in the assay with AsPC-1 (K-Ras G12D) [1] (ASPC1, read-out: pERK EC50) was below 5000 nM. Further, the IC50 in the assay on NCI-H358 (K-Ras G12C) (setting [3]) was 10 to 100 nM; with AsPC-1 (K-Ras G12D) [2], 100 to 1000 nM.
For `CCn1c(-c2cccnc2[C@H](C)OC)c2c3cc(ccc31)-c1cc(O)cc(c1)C[C@H](NC(=O)[C@H](C(C)C)N(C)C(=O)CN(C)C(=O)[C@H]1CN1CC(=O)N(C)C)C(=O)N1CCC[C@H](N1)C(=O)OCC(C)(C)C2` (stereo partly drawn) [Example 270], in that order: below 5000 nM, 10 to 100 nM and 100 to 1000 nM.
Turning to `CCn1c(-c2cccnc2[C@H](C)OC)c2c3cc(ccc31)-c1cc(O)cc(c1)C[C@H](NC(=O)[C@H](C(C)C)N(C)C(=O)CN(C)C(=O)[C@H]1CN1CCCC#N)C(=O)N1CCC[C@H](N1)C(=O)OCC(C)(C)C2` (stereo partly drawn) [Example 273], the EC50 in the assay with AsPC-1 (K-Ras G12D) [1] (ASPC1, read-out: pERK EC50) is below 5000 nM. For the same compound, the IC50 was below 10 nM with NCI-H358 (K-Ras G12C) (setting [3]) and 100 to 1000 nM with AsPC-1 (K-Ras G12D) [2].
Consider `CCn1c(-c2cccnc2[C@H](C)OC)c2c3cc(ccc31)-c1cc(O)cc(c1)C[C@H](NC(=O)[C@H](C(C)C)N(C)C(=O)CN(C)C(=O)[C@@H]1CN1CCCC#N)C(=O)N1CCC[C@H](N1)C(=O)OCC(C)(C)C2` (stereo partly drawn) [Example 274], for which the EC50 in the assay on AsPC-1 (K-Ras G12D) [1] (ASPC1, read-out: pERK EC50) is below 5000 nM. Besides, the IC50 with NCI-H358 (K-Ras G12C) (setting [3]) was below 10 nM; in the assay with AsPC-1 (K-Ras G12D) [2], 100 to 1000 nM.
The matching figures for `CCn1c(-c2cccnc2[C@H](C)OC)c2c3cc(ccc31)-c1cc(O)cc(c1)C[C@H](NC(=O)[C@H](C(C)C)N(C)C(=O)CN(C)C(=O)[C@@H]1CN1C1COC1)C(=O)N1CCC[C@H](N1)C(=O)OCC(C)(C)C2` (stereo partly drawn) [Example 276]: below 5000 nM, 10 to 100 nM and 1000 to 10000 nM.
